Experimental data reported in ChEMBL document CHEMBL1201862, “PubChem BioAssay data set” (2004).
Activity calls are given as the source filed them.

Assays:
[1] = molecular target: T1, Corticotropin-releasing factor receptor 2/Corticotropin-releasing factor-binding protein (Homo sapiens, UniProt P24387+Q13324); experiment: activators of CRF receptor 2 with binding protein – uHTS hits, confirmation (AID 602473); type: functional; settings: read-out: EC50_Mean
T1 sequence (Q13324 whole entry): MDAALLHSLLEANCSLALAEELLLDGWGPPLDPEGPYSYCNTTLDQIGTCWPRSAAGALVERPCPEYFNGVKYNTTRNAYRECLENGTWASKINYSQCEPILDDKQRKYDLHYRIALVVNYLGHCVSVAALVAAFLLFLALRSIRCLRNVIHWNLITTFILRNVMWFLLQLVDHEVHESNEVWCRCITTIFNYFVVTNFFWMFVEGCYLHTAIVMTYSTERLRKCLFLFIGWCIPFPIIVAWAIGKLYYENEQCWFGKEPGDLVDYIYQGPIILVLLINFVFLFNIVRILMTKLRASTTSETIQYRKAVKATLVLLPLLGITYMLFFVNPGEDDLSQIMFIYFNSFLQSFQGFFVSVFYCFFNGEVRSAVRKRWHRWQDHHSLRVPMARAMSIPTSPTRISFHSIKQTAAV
T1 sequence (P24387 whole entry): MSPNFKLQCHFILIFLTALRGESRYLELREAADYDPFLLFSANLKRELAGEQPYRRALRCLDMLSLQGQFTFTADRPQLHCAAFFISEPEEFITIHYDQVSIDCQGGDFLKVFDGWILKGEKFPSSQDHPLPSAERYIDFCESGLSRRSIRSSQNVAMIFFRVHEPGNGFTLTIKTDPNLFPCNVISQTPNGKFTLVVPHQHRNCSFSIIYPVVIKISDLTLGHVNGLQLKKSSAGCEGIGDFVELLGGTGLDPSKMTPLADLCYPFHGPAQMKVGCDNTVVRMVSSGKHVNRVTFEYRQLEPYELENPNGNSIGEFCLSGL

[2] = CRF-BP/CRF-R2 complex antagonists, dose response, cell-based, uHTS hits, 384-well (AID 651639); type: functional, Homo sapiens; settings: read-out: IC50_Mean
[3] = molecular target: T1, Corticotropin-releasing factor receptor 2/Corticotropin-releasing factor-binding protein; experiment: Dose Response confirmation of uHTS hits for small molecule antagonists of the CRF-binding protein and CRF-R2 receptor complex.; type: functional; settings: read-out: IC50_Mean
[4] = molecular target: T2, Short transient receptor potential channel 4 (Mus musculus, UniProt Q9QUQ5); experiment: mouse TRPC4 channel inhibitors, dose response, cell-based, HEK293 TRPC4/mu-opioid, Fluo-4 calcium (AID 434942); type: functional;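 also: potency of inhibitors blocking the TRPC4 calcium response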
T2 sequence (Q9QUQ5 whole entry): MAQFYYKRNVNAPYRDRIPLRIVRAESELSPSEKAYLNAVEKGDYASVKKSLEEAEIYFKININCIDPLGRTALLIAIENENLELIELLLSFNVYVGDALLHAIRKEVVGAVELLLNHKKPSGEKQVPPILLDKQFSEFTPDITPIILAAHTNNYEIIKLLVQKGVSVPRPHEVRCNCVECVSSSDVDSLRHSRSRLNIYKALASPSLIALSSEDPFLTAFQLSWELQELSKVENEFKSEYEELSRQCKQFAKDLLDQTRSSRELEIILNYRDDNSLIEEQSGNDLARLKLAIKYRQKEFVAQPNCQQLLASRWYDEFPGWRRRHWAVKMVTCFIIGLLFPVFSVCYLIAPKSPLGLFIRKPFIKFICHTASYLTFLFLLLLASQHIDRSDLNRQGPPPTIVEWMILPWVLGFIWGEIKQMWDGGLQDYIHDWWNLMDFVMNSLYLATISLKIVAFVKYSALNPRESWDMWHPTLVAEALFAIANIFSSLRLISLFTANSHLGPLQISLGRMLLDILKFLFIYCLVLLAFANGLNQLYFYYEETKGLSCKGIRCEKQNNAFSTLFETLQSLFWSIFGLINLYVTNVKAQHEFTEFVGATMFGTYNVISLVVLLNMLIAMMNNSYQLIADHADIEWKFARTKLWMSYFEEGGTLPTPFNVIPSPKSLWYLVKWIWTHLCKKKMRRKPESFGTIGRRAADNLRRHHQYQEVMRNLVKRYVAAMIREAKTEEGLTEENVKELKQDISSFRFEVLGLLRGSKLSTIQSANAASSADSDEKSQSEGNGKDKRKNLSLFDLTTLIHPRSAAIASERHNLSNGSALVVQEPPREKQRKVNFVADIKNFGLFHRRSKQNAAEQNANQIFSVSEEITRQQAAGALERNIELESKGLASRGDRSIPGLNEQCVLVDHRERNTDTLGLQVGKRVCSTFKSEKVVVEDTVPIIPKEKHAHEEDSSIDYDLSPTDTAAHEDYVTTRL

[5] = molecular target: T3, Polyadenylate-binding protein 1 (Homo sapiens, UniProt P11940); experiment: PABP1 MLLE–PAM2 binding inhibitor potency, dose response, biochemical, fluorescence polarization, FITC-PAM2 peptide (AID 602259); type: functional; settings: read-out: IC50_Mean
Vero = Vero cell cytotoxicity, cytotoxicity control for flavivirus capping enzyme inhibitors (AID 588742); type: functional; settings: Chlorocebus sabaeus
[6] = molecular target: T3, Polyadenylate-binding protein 1; experiment: PABP1 MLLE–PAM2 interaction inhibitors, dose response, miRNA deadenylation inhibitor project, biochemical, fluorescence polarization, Cy5-PAM2 peptide, secondary (AID 602260); type: functional; settings: read-out: IC50_Mean
Genome polyprotein = Genome polyprotein (dengue virus type 2, UniProt P29990); experiment: Dengue-2 NS5 methyltransferase inhibitors, primary screen, biochemical, confirmation dose response (AID 588689); type: functional
[7] = A Cell Based Secondary Assay To Explore Cytotoxicity of Compounds that Sensitize Mycobacterium Tuberculosis to Beta-Lactam Antibiotics.; type: functional
[8] = molecular target: Eukaryotic translation initiation factor 4E (Mus musculus, UniProt P63073); experiment: eIF4E–eIF4G protein interaction inhibitors, dose response, biochemical, TR-FRET (AID 855); type: functional;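 also: potency for disrupting eIF4E binding to eIF4GI seen as loss of FRET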

For `Cc1ccc(C)c(N2CCN(S(=O)(=O)c3ccc4c(c3)C(C)(C)C(=O)N4C)CC2)c1`, the EC50 [1] was > 53 µM (inactive), the IC50 [2] was 9.45 µM (active) and the IC50 [3] was 38.6 µM (active).
With `COc1ccc(CN2CCCCC2C)cc1C` (stereo not drawn) the EC50 [1] was 2.45 µM (active), the IC50 [2] was 20 µM (active) and the IC50 [3] was < 0.368 µM (active).
For `Cc1cc(CN2CCCC(C(=O)Nc3ccc(-c4nc5ccccc5[nH]4)cc3)C2)n[nH]1` (stereo not drawn), the EC50 [4] was 0.0003 µM (active).
In the case of `COc1cc(/C=C2/C(=O)ON=C2C)ccc1OCc1cccc(F)c1`, the IC50 [5] is reported as 42.6 µM (inactive), the CC50 (Vero) is reported as 38.2 µM (active) and the IC50 [6] is reported as > 66 µM (inactive). For the same compound, the IC50 (Genome polyprotein) was 24.1 µM (active).
In the case of `CCN(CC)CCN(C(=O)c1ccccc1OC)c1nc2ccc(F)cc2s1`, the EC50 [4] is reported as 2.11 µM (active).
With `Cc1ccc(OCC(COCc2ccccc2)NC(C)C)cc1` (stereo not drawn) the EC50 [4] was 3.76 µM (active).
With `CSc1ccc(-c2nnn(CC(=O)NCc3ccccc3)n2)cc1` the CC50 [7] was > 40 µM (active).
In the case of `CN(C)C(CNC(=O)CCc1nc2ccccc2s1)c1ccccc1` (stereo not drawn), the EC50 [4] is reported as 0.0187 µM (active).
In the case of `CC(C)N(Cc1nc(-c2ccccc2)no1)C(=O)COc1ccccc1`, the IC50 [8] is reported as > 64 µM (inactive).
In the case of `CC(C)=CCC/C(C)=C/C=N/NC(=O)c1ccc([N+](=O)[O-])cc1`, the CC50 [7] is reported as > 40 µM (active).
With `COc1ccc(C2=NN(C(=O)c3ccccc3)C(c3ccc(OC)c(OC)c3)C2)c(O)c1` (stereo not drawn) the EC50 [4] was 9.44 µM (active).
